“Also recorded” adds a separate entry of the source.
Columns and labels:
COX-2 = biological target: T1, COX-2 (Homo sapiens, UniProt P35354); experiment: Cell-based COX-2 activity assay in IL-1β-stimulated A549 cells; set-up: endogenous in cells; host or cells: A549 stimulated with 1 ng/ml IL-1β; conditions: 10 µM, 24 h, 1 ng/ml IL-1β
T1 sequence (P35354 18-604): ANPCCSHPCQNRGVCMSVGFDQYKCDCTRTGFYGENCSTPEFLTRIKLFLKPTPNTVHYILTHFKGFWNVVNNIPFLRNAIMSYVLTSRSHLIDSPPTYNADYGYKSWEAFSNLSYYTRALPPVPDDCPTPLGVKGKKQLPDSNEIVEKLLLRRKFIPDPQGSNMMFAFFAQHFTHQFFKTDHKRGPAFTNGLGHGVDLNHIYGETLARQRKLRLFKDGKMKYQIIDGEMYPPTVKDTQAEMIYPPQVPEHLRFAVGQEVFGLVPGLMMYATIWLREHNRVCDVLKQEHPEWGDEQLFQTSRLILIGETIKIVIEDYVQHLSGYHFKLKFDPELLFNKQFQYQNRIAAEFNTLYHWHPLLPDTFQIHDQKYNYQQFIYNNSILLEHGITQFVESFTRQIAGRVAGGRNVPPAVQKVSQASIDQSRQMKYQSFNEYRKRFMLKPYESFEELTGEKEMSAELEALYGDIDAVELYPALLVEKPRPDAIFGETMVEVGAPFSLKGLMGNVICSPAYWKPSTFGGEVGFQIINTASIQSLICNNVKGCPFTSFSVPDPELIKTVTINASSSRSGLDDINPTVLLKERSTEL
Method: The COX-2 inhibitory effects of NFA were investigated using a cell-based COX-2 activity assay performed using a Cyclooxygenase (COX) Activity Assay Kit (Fluorometric) from Abcam (Cambridge, UK; #ab204699). A549 cells (3 × 10^6) were seeded in 10-cm dishes and allowed to become adherent for 3 h. […] Then, cells were detached with a cell scraper and washed twice with 1× PBS before being resuspended in 100 µl lysis buffer (1× PBS containing 1% NP-40). The cells were incubated for 30 min with shaking on ice. After 3-min centrifugation at 12,000 ×g at 4°C, 20 µl supernatant was used for the COX activity assay. The assay was performed according to the manufacturer’s instructions in a white 96-well microplate with a clear bottom in duplicate. […] COX-2 activity was normalized to protein concentration.
Suppl. Figure 5: Effects of NFA on cellular COX-2 activity. COX-2 Activity of A549 cells […]
h. Cells were lysed, and COX-2 activity was measured using Cyclooxygenase (COX) Activity Assay Kit (Fluorometric) from Abcam. (A) NFA derivatives with different chain length. (B) NFA derivatives with different Michael acceptor position. Samples were normalized to protein concentration. Data are presented as mean + SD of n=4. COX, cyclooxygenase; DMSO, dimethyl sulfoxide NFA, nitro fatty acids .
(1 picture or pasted object on this page, not shown here)

PMNL = experiment: WST-1 viability assay in PMNL; format: cell-based, human; conditions: 20 µM, 2 h (data not shown)
Method: Cell viability was analyzed with the WST-1 assay based on the cleavage of the stable tetrazolium salt WST-1 by the mitochondrial reductase system. Cells were seeded in the appropriate densities in a clear 96-well plate and settled overnight at 37°C in 5% CO2. […] Cell viability was analyzed by adding 10 µl WST-1 solution (Roche, Basel, Switzerland) and subsequently incubating the cells at 37°C for another 30–40 min. Absorbance was measured at 450 nm with a control wavelength at 620 nm using a plate reader.
5-LO, the key enzyme in leukotriene biosynthesis, catalyzes the first steps in leukotriene formation from AA. Oxidation of AA by 5-LO leads to the formation of 5-hydroperoxyeicosatetraenoic acid (5-HPETE), which can further be converted to LTA4 or reduced to 5-HETE. In the next step, LTA4 is hydrolyzed by LTA4 hydrolase to produce LTB4. Moreover, 12- and 15-LO catalyze the formation of 12- and 15-H(P)ETE [12- and 15-hydro(per)oxyeicosatetraenoic acid]. Nitroalkylation of 5-LO cysteines 416 and 418 by NFA leads to enzyme inhibition and beneficial anti-inflammatory effects, whereas no impact has been observed on 12- and 15-LO so far ([Awwad et al., 2014]). 5-LO product formation of purified PMNL was triggered by incubation with 2.5 µM of the calcium ionophore A23187 in the presence of 20 µM AA. […] Shifting the nitro group from position 9 to 10, or rather, towards position 11 (18.11.11), led to a decreased impact on 15-LO product formation (Table 3). […] Therefore, 5-LO product formation of purified PMNL after treatment with A23187 was determined in absence of AA which should strongly increase the 5-LO-inhibitory potency of competitive inhibitors. However, IC50 values were similar under these conditions strengthening the hypothesis of NFA as presumably non-competitive 5-LO inhibitors. Using a WST-1 viability assay we assessed possible cytotoxic effects of the strongest 5-LO-inhibitory NFA derivatives in PMNL including 18.4.4, 18.5.5, 18.6.6, 18.7.7, 18.8.8, 18.8.9, 18.9.9, 18.9.10, 18.10.10, 20.9.9, and 22.9.9.

SMILES	effect on COX-2 activity in IL-1β-stimulated A549 cells (COX-2)	cytotoxic effects in PMNL (WST-1 viability) (PMNL)
CCC=C(CCCCCCCC(=O)O)[N+](=O)[O-] [12.9.9, 9-nitro-dodec-9-enoic acid]	failed increasing COX-2 product formation	–
CCCCC=C(CCCCCCCC(=O)O)[N+](=O)[O-] [14.9.9, 9-nitro-tetradec-9-enoic acid]	failed increasing COX-2 product formation	–
CCCCCCC=C(CCCCCCCC(=O)O)[N+](=O)[O-] [16.9.9, 9-nitro-hexadec-9-enoic acid]	failed increasing COX-2 product formation	–
CCCCCCCCCCCCCC=C(CCC(=O)O)[N+](=O)[O-] [18.4.4, 4-nitro-octadec-4-enoic acid]	–	failed to induce significant cytotoxic effects
CCCCCCCCCCCCC=C(CCCC(=O)O)[N+](=O)[O-] [18.5.5, 5-nitro-octadec-5-enoic acid]	–	failed to induce significant cytotoxic effects
CCCCCCCCCCCC=C(CCCCC(=O)O)[N+](=O)[O-] [18.6.6, 6-nitro-octadec-6-enoic acid]	induced COX-2 activity	failed to induce significant cytotoxic effects
CCCCCCCCCCC=C(CCCCCC(=O)O)[N+](=O)[O-] [18.7.7, 7-nitro-octadec-7-enoic acid]	–	failed to induce significant cytotoxic effects
CCCCCCCCCC=C(CCCCCCC(=O)O)[N+](=O)[O-] [18.8.8, 8-nitro-octadec-8-enoic acid]	induced COX-2 activity	failed to induce significant cytotoxic effects
CCCCCCCCCC(=CCCCCCCC(=O)O)[N+](=O)[O-] [18.8.9, 9-nitro-octadec-8-enoic acid]	–	failed to induce significant cytotoxic effects
CCCCCCCCC=C(CCCCCCCC(=O)O)[N+](=O)[O-] [18.9.9, 9-nitro-octadec-9-enoic acid]	no COX-2 inhibition	failed to induce significant cytotoxic effects
CCCCCCCCC(=CCCCCCCCC(=O)O)[N+](=O)[O-] [18.9.10, 10-nitro-octadec-9-enoic acid]	–	failed to induce significant cytotoxic effects
CCCCCCCC=C(CCCCCCCCC(=O)O)[N+](=O)[O-] [18.10.10, 10-nitro-octadec-10-enoic acid]	slight COX-2 inhibition	failed to induce significant cytotoxic effects
CCCCCCCCCCC=C(CCCCCCCC(=O)O)[N+](=O)[O-] [20.9.9, 9-nitro-eicos-9-enoic acid]	no COX-2 inhibition; also recorded: increased COX-2 product formation	failed to induce significant cytotoxic effects
